The results in this text go back to ChEMBL document CHEMBL4321839, “Structure-activity relationships (SAR) of triazine derivatives: Promising antimicrobial agents” (Eur J Med Chem, 2020).

The test system of one data set is Candida albicans. The data set is described as follows: Antifungal activity against Candida albicans NCIM-3102 at 18 to 24 hrs by CLSI based alamar blue assay. The class given is functional. For orientation: Alamar Blue is a resazurin reagent that responds to reducing activity.
Another data set relates to Cryptococcus neoformans. The data set is described as follows: Antifungal activity against Cryptococcus neoformans NCIM-3542 at 72 hrs by CLSI based alamar blue assay. The class given is functional. The settings on record: NCIM-3542, 72 h.
A further data set relates to Nakaseomyces glabratus. The data set is described as follows: Antifungal activity against Candida glabrata NCIM-3266 at 18 to 24 hrs by CLSI based alamar blue assay. The class given is functional.
Another data set relates to Aspergillus niger. The data set is described as follows: Antifungal activity against Aspergillus niger NCIM-620 at 72 hrs by CLSI based alamar blue assay. The class given is functional. As to conditions: NCIM-620, 72 h.
Data set [1] deals with Escherichia coli. The data set is described as follows: Antimicrobial activity multi drug-resistant against Escherichia coli. The class given is functional.
Data set [2] deals with Staphylococcus aureus. The data set is described as follows: Antimicrobial activity methicillin-resistant against Staphylococcus aureus. The class given is functional.
Data set [3] concerns Pseudomonas aeruginosa. The data set is described as follows: Antimicrobial activity against Pseudomonas aeruginosa NCIM-2036 after 24 hrs by CLSI based broth dilution method. The class given is functional. As to conditions: NCIM-2036, 24 h. Background: Dilution methods test growth across graded concentrations, often in twofold steps.
Data set [4] has as its system Staphylococcus aureus. Description: Antimicrobial activity against Staphylococcus aureus NCIM-2079 assessed as zone of inhibition at 5 ug after 24 hrs by disk diffusion method. The settings on record: NCIM-2079, 24 h, read-out: IZ. The class given is functional. (In general: Agar diffusion results depend on both activity and mobility in agar.)
In the next data set the test system is Bacillus cereus. Description: Antimicrobial activity against Bacillus cereus NCIM-2156 assessed as zone of inhibition at 5 ug after 24 hrs by disk diffusion method. The class given is functional. As to conditions: NCIM-2156, 24 h, read-out: IZ.
The subject of the next data set is Bacillus subtilis. The data set is described as follows: Antimicrobial activity against Bacillus subtilis NCIM-2063 assessed as zone of inhibition at 5 ug after 24 hrs by disk diffusion method. The class given is functional. The settings on record: NCIM-2063, 24 h, read-out: IZ.
Data set [5] deals with Pseudomonas aeruginosa. Description: Antimicrobial activity against Pseudomonas aeruginosa NCIM-2036 assessed as zone of inhibition at 5 ug after 24 hrs by disk diffusion method. The class given is functional. The settings on record: NCIM-2036, 24 h, read-out: IZ.
The subject of data set [6] is Staphylococcus aureus. Description: Antimicrobial activity against methicillin-resistant Staphylococcus aureus clinical isolate MRSA1 assessed as reduction in microbial growth by two-fold serial dilution method. The class given is functional.
Data set [7] is described as follows: Cytotoxicity against African green monkey Vero cells incubated for 72 hrs by MTT assay. The class given is cell-based. The settings on record: chlorocebus sabaeus.
In data set [8] the test system is Staphylococcus aureus. The data set is described as follows: Antimicrobial activity against Staphylococcus aureus […] assessed as reduction in microbial growth after 24 to 48 hrs by microdilution susceptibility test. The class given is functional.
The subject of data set [9] is Escherichia coli. Description: Antimicrobial activity against Escherichia coli ATCC 25922 assessed as reduction in microbial growth after 24 to 48 hrs by microdilution susceptibility test. The class given is functional.
For a further data set, the system named is Klebsiella pneumoniae. The data set is described as follows: Antimicrobial activity against multi drug-resistant Klebsiella pneumoniae assessed as reduction in microbial growth by two-fold serial dilution method. The class given is functional.

Converted amounts (≈) assume the structure as drawn.

As a reminder, the MIC is the least concentration at which growth counts as inhibited. Turning to `c1ccc(-c2csc(Nc3nc(N4CCOCC4)nc(N4CCOCC4)n3)n2)cc1`, the MIC in the data set with Candida albicans, against Cryptococcus neoformans, with Nakaseomyces glabratus and in the data set with Aspergillus niger was 0.63 to 5 µg/mL (≈ 1.48 to 11.8 µM) throughout.
In the case of `Cc1ccc(C2=NN=C3C(F)CC4=C(C(C5CC5)C=C(C(=O)O)C4=O)N3C2)cc1` (centres undefined), the MIC came to 0.25 µg/mL (≈ 0.635 µM) in the data set on Escherichia coli [1] and 0.5 µg/mL (≈ 1.27 µM) against Staphylococcus aureus [2].
As for `CC1=NN(c2ccccc2)C(C)C1Nc1nnc(Sc2nc(Nc3ccc(F)cc3)nc(Nc3ccc(F)cc3)n2)s1` (centres undefined), the MIC against Pseudomonas aeruginosa [3] was 6.25 µg/mL (≈ 10.4 µM).
On to `CC1=NN(c2ccccc2)C(C)C1Nc1nnc(Sc2nc(Nc3ccc(Br)cc3)nc(Nc3ccc(Br)cc3)n2)s1` (centres undefined), for which, in the data set on Pseudomonas aeruginosa [3], it took 6.25 µg/mL (≈ 8.63 µM) to inhibit growth (MIC).
Compound `CC(C)Nc1nc(Nc2nc(-c3ccc(Cl)cc3)cs2)nc(NC(C)C)n1` had an MIC against Candida albicans of 5 µg/mL (≈ 12.4 µM).
`S=C(Nc1ccnc2cc(Cl)ccc12)N1CCN(c2nc(Nc3ccc(Cl)cc3)nc(Nc3ccc(Cl)cc3)n2)CC1`: the zone of inhibition at 5 µg/disc with Staphylococcus aureus [4] was in the range of 16 to 17 mm; in the data set on Bacillus cereus, 9 to 17 mm; with Bacillus subtilis, 16 to 17 mm; in the data set with Pseudomonas aeruginosa [5], 9 to 17 mm.
Regarding `COc1ccc(C2=NN=C3C(F)CC4=C(C(C5CC5)C=C(C(=O)O)C4=O)N3C2)cc1OC` (centres undefined), the MIC in the data set with Escherichia coli [1] is 0.5 µg/mL (≈ 1.14 µM); in the data set with Staphylococcus aureus [2] it was 1 µg/mL (≈ 2.28 µM).
What is called CC50 is the concentration giving 50% cytotoxicity. Consider `O=C(N/N=C/c1ccc2c(c1)OCO2)c1ccc(Nc2nc(N3CCCCC3)nc(N3CCCCC3)n2)cc1`, for which the MIC in the data set on Staphylococcus aureus [6] was 25 µg/mL. Besides, the CC50 at 72 h in [7] came to 250 µg/mL (≈ 473 µM).
For `Clc1ccc(-c2csc(Nc3nc(N4CCOCC4)nc(N4CCOCC4)n3)n2)cc1`, the MIC in the data set on Candida albicans, in the data set with Cryptococcus neoformans, in the data set with Nakaseomyces glabratus and with Aspergillus niger was 0.63 to 5 µg/mL (≈ 1.37 to 10.9 µM) in each case.
With `CC1=NN(c2ccccc2)C(C)C1Nc1nnc(Sc2nc(Nc3ccc(Cl)cc3)nc(Nc3ccc(Cl)cc3)n2)s1` (centres undefined), the lowest concentration to inhibit growth against Pseudomonas aeruginosa [3] (MIC) was 6.25 µg/mL (≈ 9.83 µM).
Turning to `O=[N+]([O-])c1ccc(-c2csc(Nc3nc(N(c4ccccc4)c4ccccc4)nc(N(c4ccccc4)c4ccccc4)n3)n2)cc1`, the MIC with Candida albicans and against Nakaseomyces glabratus was 0.32 µg/mL (≈ 0.504 µM) in each case.
For `Nc1ccc(C2=NN=C3C(F)CC4=C(C(C5CC5)C=C(C(=O)O)C4=O)N3C2)cc1` (centres undefined), inhibition of growth with Staphylococcus aureus [2] (MIC) required 0.25 µg/mL (≈ 0.634 µM).
In the case of `COc1ccccc1C1=NN=C2C(F)CC3=C(C(C4CC4)C=C(C(=O)O)C3=O)N2C1` (centres undefined), the minimal inhibitory concentration (MIC) with Escherichia coli [1] came to 0.5 µg/mL (≈ 1.22 µM); with Staphylococcus aureus [2] it was 1 µg/mL (≈ 2.44 µM).
Consider `O=[N+]([O-])c1ccc(-c2csc(Nc3nc(N4CCOCC4)nc(N4CCOCC4)n3)n2)cc1`, for which the minimum inhibitory concentration (MIC) in the data set with Candida albicans, with Cryptococcus neoformans, in the data set with Nakaseomyces glabratus and in the data set with Aspergillus niger was 0.63 to 5 µg/mL (≈ 1.34 to 10.6 µM) in each case.
For the compound `O=C(CNc1nc(NCC(=O)N/N=C/c2ccc(Cl)cc2)nc(N2CCN(c3nc(NCC(=O)N/N=C/c4ccc(Cl)cc4)nc(NCC(=O)N/N=C/c4ccc(Cl)cc4)n3)CC2)n1)N/N=C/c1ccc(Cl)cc1`, the MIC in the data set with Staphylococcus aureus [8] and in the data set with Escherichia coli [9] was 12.5 to 25 µg/mL in each case.
For `S=C(Nc1ccnc2cc(Cl)ccc12)N1CCN(c2nc(Nc3ccc(Br)cc3)nc(Nc3ccc(Br)cc3)n2)CC1`, the zone of inhibition at 5 µg/disc lay in the range of 16 to 17 mm in the data set with Staphylococcus aureus [4], 9 to 17 mm with Bacillus cereus, 16 to 17 mm in the data set on Bacillus subtilis and 9 to 17 mm in the data set with Pseudomonas aeruginosa [5].
Regarding `O=C(N/N=C/c1ccccc1)c1ccc(Nc2nc(N3CCCCC3)nc(N3CCCCC3)n2)cc1`, in the data set on Klebsiella pneumoniae, the MIC is 50 µg/mL. For the same compound, half-maximal cytotoxicity in data set [7] (CC50 at 72 h) was put at 250 µg/mL (≈ 516 µM).
For the compound `Nc1nc(N)nc(Nc2ccc(C(=O)N/N=C/c3ccco3)cc2)n1`, the results for the MIC with Staphylococcus aureus [6] and in the data set with Klebsiella pneumoniae were 3.12 µg/mL and 12.5 µg/mL, respectively. Moreover, the CC50 at 72 h in data set [7] worked out at 125 µg/mL (≈ 369 µM).
For `O=C(O)C1=CC(C2CC2)C2=C(CC(F)C3=NN=C(c4ccc(Cl)cc4)CN32)C1=O` (centres undefined), the MIC in the data set with Escherichia coli [1] and against Staphylococcus aureus [2] was 8 µg/mL (≈ 19.3 µM) each time.
